Results published in patent publication US20250339409A1, “USES OF PAN BET INHIBITORS” (VYNE THERAPEUTICS INC., priority 2021, published 2025).
Values joined by “and” are separate entries in the source; they are usually repeats but may differ in a detail not shown here. Identical values can stand only once.

Test system: incisional skin wounds
Assay: Incisional skin wound healing model (external and internal scoring, time to complete healing, body weight)
Assay type: in vivo, female Hairless Skh-1 mice
Design: key to Mean internal scores, Score presence tissue mass: 0 = no tissue mass, 1 = small, 2 = moderate, 3 = large; key to Global external score per day (mean): sum of the scores of 4 external wound parameters; MBWC D 16 − D 0, individual mouse: unit not given here
Conditions: for Global external score per day (mean) / Mean score swelling per day / Mean score visibility (external) per day: BETi1 at 1%; for Mean score length (mm) per day / Mean score width (mm) per day: skin wound; for Body weight, individual mouse: in g (unit assumed)
Protocol: Incisional wounds (10 mm) are made over the entire thickness of the skin (about 1 mm) on both flanks of nine female Hairless Skh-1 mice divided into 3 groups (n=3) according to body weight on D0. Formulations or hydroalcoholic gel are administered topically once daily starting immediately after the induction of skin wounds on DO until the complete healing of both wounds of each mouse, at the same time in the morning. The effects of treatment on wound healing with the formulation used containing one dose of the novel BETi, the vehicle of this new compound (negative control) and a hydroalcoholic gel preventing wound healing (positive control), is evaluated by the daily scoring of the healing process externally. The scoring is based on the daily measurement of the length and width, swelling of each induced skin wound from DO until complete healing, the determination of the time required for complete healing of each of induced skin wounds, and after complete healing of both wounds of a same mouse, by the scoring of the healing process internally by evaluation of the visibility of the scar, the presence of a tissue mass (collagen+elastin) under the scar and the level of vascularization of the scar.
Mice are weighed 3 times per week from the day of induction of skin wounds (D0) until the complete healing of both wounds of each mouse and before sacrifice. The viability and the well being of mice of each cage is checked and recorded daily.
The scoring takes into account the following 4 parameters: The length of the skin wounds measured with a ruler.
The width of the skin wounds with the following scoring grid: • 0=skin wound completely closed, • 1=skin wound almost completely closed, • 2=skin wound moderately closed, • 3=skin wound wide open.
The swelling of the skin wounds with the following scoring grid: • 0=skin wound no or no longer swollen, • 1=skin wound slightly swollen, • 2=skin wound moderately swollen, • 3=skin wound highly swollen.
The visibility of the skin wounds with the following scoring grid: • 0=skin wound no or no longer visible, • 1=skin wound slightly visible, • 2=skin wound moderately visible, • 3=skin wound highly visible.
The sum of the scores of these 4 parameters gives the Global External Score of Wound Healing (GESWH). The time required for complete healing of each induced skin wound is also determined.
After the complete healing of both skin wounds of each mouse, mice are sacrificed, and the scoring of the healing process internally is performed for each wound and takes into account the following 3 parameters: • visibility of the scar with the following scoring grid: • 0=scar highly visible • 1=scar moderately visible, • 2=scar slightly visible • 3=scar non-visible.
The presence of a tissue mass (collagen+elastin) under the scar with the following scoring grid: • 0=no tissue mass present, • 1=small tissue mass present, • 2=moderate tissue mass present, • 3=large tissue mass present.
The level of vascularization of the scar with the following scoring grid: • 0=important vascularization of the scar, • 1=moderate vascularization of the scar, • 2=low vascularization of the scar, • 3=very little vascularization of the scar.
The sum of the scores of these 3 parameters gives the Global Internal Score of Wound Healing (GISWH). A macroscopic observation of all organs of the abdominal and thoracic cavities is performed on all mice. Any other organ with abnormal shape, size or colour is listed.
The body weight, mean body weight change (MBWC) of mice, the external scores of the length, width, swelling and visibility of skin wounds as well as the Global External Score of Wound Healing (GESWH), the time required for complete healing of skin wounds, and the internal scores of the visibility, the presence of a tissue mass and the vascularization of scars as well as the Global Interna Score of Wound Healing (GISWH) are analyzed at the end of the experimentation. […]

Compound: Cn1cc(-c2cccc(O)c2Oc2ccccc2)c2cc[nH]c2c1=O [BETi1]
- Global external score per day (mean) (D 0): 15.00
- Mean score swelling per day (D 0): 0.00
- Mean score visibility (external) per day (D 0): 3.00
- Global external score per day (mean) (D 1): 16.33
- Mean score swelling per day (D 1): 1.33
- Mean score visibility (external) per day (D 1): 3.00
- Global external score per day (mean) (D 2): 17.67
- Mean score swelling per day (D 2): 2.00
- Mean score visibility (external) per day (D 2): 3.00
- Global external score per day (mean) (D 3): 18.17
- Mean score swelling per day (D 3): 2.00
- Mean score visibility (external) per day (D 3): 3.00
- Global external score per day (mean) (D 4): 17.50
- Mean score swelling per day (D 4): 2.17
- Mean score visibility (external) per day (D 4): 3.00
- Global external score per day (mean) (D 5): 15.00
- Mean score swelling per day (D 5): 2.17
- Mean score visibility (external) per day (D 5): 3.00
- Global external score per day (mean) (D 6): 14.17
- Mean score swelling per day (D 6): 2.17
- Mean score visibility (external) per day (D 6): 3.00
- Global external score per day (mean) (D 7): 13.67
- Mean score swelling per day (D 7): 2.50
- Mean score visibility (external) per day (D 7): 3.00
- Global external score per day (mean) (D 8): 13.50
- Mean score swelling per day (D 8): 2.33
- Mean score visibility (external) per day (D 8): 2.83
- Global external score per day (mean) (D 9): 13.33
- Mean score swelling per day (D 9): 2.17
- Mean score visibility (external) per day (D 9): 2.83
- Global external score per day (mean) (D 10): 12.00
- Mean score swelling per day (D 10): 2.17
- Mean score visibility (external) per day (D 10): 2.83
- Global external score per day (mean) (D 11): 10.33
- Mean score swelling per day (D 11): 1.83
- Mean score visibility (external) per day (D 11): 2.67
- Global external score per day (mean) (D 12): 8.00
- Mean score swelling per day (D 12): 1.67
- Mean score visibility (external) per day (D 12): 2.17
- Global external score per day (mean) (D 13): 5.17
- Mean score swelling per day (D 13): 1.67
- Mean score visibility (external) per day (D 13): 1.17
- Global external score per day (mean) (D 14): 4.50
- Mean score swelling per day (D 14): 1.67
- Mean score visibility (external) per day (D 14): 0.83
- Global external score per day (mean) (D 15): 3.00
- Mean score swelling per day (D 15): 1.50
- Mean score visibility (external) per day (D 15): 0.50
- Global external score per day (mean) (D 16): 2.17
- Mean score swelling per day (D 16): 1.17
- Mean score visibility (external) per day (D 16): 0.33
- Global external score per day (mean) (D 17): 0.50
- Mean score swelling per day (D 17): 0.50
- Mean score visibility (external) per day (D 17): 0.00
- Mean internal scores, Global internal score (after complete healing): 2.00
- Mean internal scores, Score presence tissue mass (after complete healing): 0.50
- Mean internal scores, Score vascularization (after complete healing): 1.33
- Mean internal scores, Score visibility scar (after complete healing): 0.17
- global external lesion severity score (compared to hydroalcoholic gel, beginning at treatment day 5): statistically significant decrease (improvement) in global external lesion severity score
- complete healing earlier compared to hydroalcoholic gel (incisional lesions): approximately 5 days
- mean time to heal (incisional lesions): 15.5 days
- Mean time for complete wound healing, Day for complete healing (incisional wounds, once daily topical): 15.50 days
- swelling at wound edges (significantly different on Days 15, 16 and 17 compared to vehicle and hydroalcoholic gel): rapidly reduced the swelling at wound edges
- Mean score length (mm) per day (D 0): 10.00 mm
- Mean score width (mm) per day (D 0): 2.00 mm
- Mean score length (mm) per day (D 1): 10.00 mm
- Mean score width (mm) per day (D 1): 2.00 mm
- Mean score length (mm) per day (D 2): 10.00 mm
- Mean score width (mm) per day (D 2): 2.67 mm
- Mean score length (mm) per day (D 3): 10.00 mm
- Mean score width (mm) per day (D 3): 2.83 mm
- Mean score length (mm) per day (D 4): 9.33 mm
- Mean score width (mm) per day (D 4): 3.00 mm
- Mean score length (mm) per day (D 5): 7.50 mm
- Mean score width (mm) per day (D 5): 2.33 mm
- Mean score length (mm) per day (D 6): 6.50 mm
- Mean score width (mm) per day (D 6): 2.50 mm
- Mean score length (mm) per day (D 7): 5.67 mm
- Mean score width (mm) per day (D 7): 2.50 mm
- Mean score length (mm) per day (D 8): 5.67 mm
- Mean score width (mm) per day (D 8): 2.67 mm
- Mean score length (mm) per day (D 9): 5.50 mm
- Mean score width (mm) per day (D 9): 2.83 mm
- Mean score length (mm) per day (D 10): 4.83 mm
- Mean score width (mm) per day (D 10): 2.17 mm
- Mean score length (mm) per day (D 11): 3.83 mm
- Mean score width (mm) per day (D 11): 2.00 mm
- Mean score length (mm) per day (D 12): 2.67 mm
- Mean score width (mm) per day (D 12): 1.50 mm
- Mean score length (mm) per day (D 13): 1.50 mm
- Mean score width (mm) per day (D 13): 0.83 mm
- Mean score length (mm) per day (D 14): 1.17 mm
- Mean score width (mm) per day (D 14): 0.83 mm
- Mean score length (mm) per day (D 15): 0.50 mm
- Mean score width (mm) per day (D 15): 0.50 mm
- Mean score length (mm) per day (D 16): 0.33 mm
- Mean score width (mm) per day (D 16): 0.33 mm
- Mean score length (mm) per day (D 17): 0.00 mm
- Mean score width (mm) per day (D 17): 0.00 mm
- tolerability within the lesion sites and in general (throughout the treatment period): appeared to be well-tolerated
- Mean body weight (gram) per day (wound model, D 0): 26.61 gram
- Body weight, individual mouse (wound model, D 0, listed as BETi11.0%): 25.00 and 28.64 and 26.19
- Mean body weight (gram) per day (wound model, D 2): 25.53 gram
- Mean body weight (gram) per day (wound model, D 4): 25.70 gram
- Mean body weight (gram) per day (wound model, D 7): 26.10 gram
- Mean body weight (gram) per day (wound model, D 9): 26.85 gram
- Mean body weight (gram) per day (wound model, D 11): 27.01 gram
- Mean body weight (gram) per day (wound model, D 13): 26.88 gram
- Mean body weight (gram) per day (wound model, D 16): 27.33 gram
- Body weight, individual mouse (wound model, D 16, listed as BETi11.0%): 25.10 and 28.47 and 28.43
- MBWC D 16 − D 0, individual mouse (wound model, listed as BETi11.0%): 0.10 and −0.17 and 2.24
